Experimental data as given in US12065445B2, “CDK2 inhibitors and methods of using the same” (Cedilla Therapeutics, Inc., priority 2021, dated 2024).

Assays:
Kuramochi cells = assay: BrdU Cell Proliferation Assay; type: cell-based; conditions: read-out: BrdU - KURAMOCHI.1: IC50
Procedure, shortened: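 Kuramochi cells were seeded at 2,000 cells/well, adhered overnight, then treated with a 10-point, 3-fold compound dilution series for 4 days. Proliferation was measured by a 1-hour BrdU pulse, anti-BrdU peroxidase colorimetric ELISA and 450 nm absorbance. Values were background-subtracted and normalized to DMSO wells.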

[1] = test system: Kuramochi cells labeled with mApple-H2B; assay: IncuCyte Cell Proliferation Assay; type: cell-based; conditions: 72 h
Procedure, shortened: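 Cells imaged at 0 and 72 h after compound treatment (10 points, ½ log dilution, 20 μM top), with fluorescent nuclei counted. Fold change in count was normalized to DMSO wells and fitted to dose-response curves to give GI50.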

Row | Compound | IC50 (Kuramochi cells) | IC50 [1]
1 | CNC(=O)[C@@H](NC(=O)[C@@H]1CN(C(=O)c2cnn(Cc3ccccc3)c2)CC12CN(C(=O)[C@H]1CC1(C)C)C2)[C@@H](C)OCC1CCCCCC1 [I-166A] | ≤ 0.5 µM | ≤ 0.5 µM
2 | CNC(=O)[C@@H](NC(=O)[C@@H]1CN(C(=O)c2cnn(Cc3ccccc3)c2)CC12CN(C(=O)C(C)(C)C)C2)[C@@H](C)OCC1CCCCC1 [I-174A] | 0.5 to 5 µM | 0.5 to 5 µM
3 | CNC(=O)[C@@H](NC(=O)[C@@H]1CN(C(=O)c2cnc(COC(C)(C)C)s2)CC12CN(C(=O)[C@H]1CC1(C)C)C2)[C@@H](C)OCC1CCCCC1 [I-175A] | ≤ 0.5 µM | ≤ 0.5 µM
4 | CNC(=O)[C@@H](NC(=O)[C@H]1CN(C(=O)c2cnc(COC(C)(C)C)s2)CC12CN(C(=O)[C@H]1CC1(C)C)C2)[C@@H](C)OCC1CCCCC1 [I-175B] | > 10 µM | 5 to 20 µM
5 | C[C@@H](OCc1ccccc1)[C@H](NC(=O)[C@@H]1CN(C(=O)c2cnn(Cc3ccccc3)c2)CC12CN(C(=O)[C@H]1CC1(C)C)C2)C(N)=O [I-176A] | > 10 µM | > 20 µM
6 | CNC(=O)[C@@H](NC(=O)[C@@H]1CN(C(=O)c2cnc(CC3CC3)s2)CC12CN(C(=O)[C@H]1CC1(C)C)C2)[C@@H](C)OCC1CCCCC1 [I-177A] | 0.5 to 5 µM | 5 to 20 µM
7 | CNC(=O)[C@@H](NC(=O)[C@@H]1CN(C(=O)c2cnc(C3CC3)s2)CC12CN(C(=O)[C@H]1CC1(C)C)C2)[C@@H](C)OCC1CCCCC1 [I-178A] | > 10 µM | 5 to 20 µM
8 | CNC(=O)[C@@H](NC(=O)[C@@H]1CN(C(=O)c2cnc(Cl)s2)CC12CN(C(=O)[C@H]1CC1(C)C)C2)[C@@H](C)OCC1CCCCC1 [I-189A] | > 10 µM | 5 to 20 µM
9 | CNC(=O)[C@@H](NC(=O)[C@H]1CN(C(=O)c2cnc(Cl)s2)CC12CN(C(=O)[C@H]1CC1(C)C)C2)[C@@H](C)OCC1CCCCC1 [I-189B] | > 10 µM | > 20 µM
10 | CC1(C)C[C@@H]1C(=O)N1CC2(CN(C(=O)c3cnn(Cc4ccccc4)c3)C[C@H]2C(=O)NCc2nnc[nH]2)C1 [I-191A] | > 10 µM | > 20 µM
11 | CC1(C)C[C@@H]1C(=O)N1CC2(CN(C(=O)c3cnn(Cc4ccccc4)c3)C[C@@H]2C(=O)NCc2nnc[nH]2)C1 [I-191B] | > 10 µM | > 20 µM
12 | C[C@@H](OCC1CCCCC1)[C@H](NC(=O)C1CN(C(=O)c2cncs2)CC12CN(C(=O)[C@H]1CC1(C)C)C2)C(=O)N1CCC[C@H](CO)C1 (stereo partly shown) [I-193] | ≤ 0.5 µM | ≤ 0.5 µM
13 | C[C@@H](OCC1CCCCC1)[C@H](NC(=O)C1CN(C(=O)c2cnn(Cc3ccccc3)c2)CC12CN(C(=O)[C@H]1CC1(C)C)C2)C(=O)N1CCCCC1 (stereo partly shown) [I-194 mixture] | ≤ 0.5 µM | ≤ 0.5 µM
14 | C[C@@H](OCC1CCCCC1)[C@H](NC(=O)[C@@H]1CN(C(=O)c2cnn(Cc3ccccc3)c2)CC12CN(C(=O)[C@H]1CC1(C)C)C2)C(=O)N1CCCCC1 [I-194A, (S)-6-(1-benzyl-1H-pyrazole-4-carbonyl)-N-((2S,3R)-3-(cyclohexylmethoxy)-1-oxo-1-(piperidin-1-yl)butan-2-yl)-2-((S)-2,2-dimethylcyclopropane-1-carbonyl)-2,6-diazaspiro[3.4]octane-8-carboxamide] | ≤ 0.5 µM | ≤ 0.5 µM
15 | C[C@@H](OCC1CCCCC1)[C@H](NC(=O)[C@H]1CN(C(=O)c2cnn(Cc3ccccc3)c2)CC12CN(C(=O)[C@H]1CC1(C)C)C2)C(=O)N1CCCCC1 [I-194B] | 0.5 to 5 µM | 5 to 20 µM
16 | COC[C@@H]1CCCN(C(=O)[C@@H](NC(=O)C2CN(C(=O)c3cncs3)CC23CN(C(=O)[C@H]2CC2(C)C)C3)[C@@H](C)OCC2CCCCC2)C1 (stereo partly shown) [I-195] | ≤ 0.5 µM | ≤ 0.5 µM
17 | COC[C@H]1CCCN(C(=O)[C@@H](NC(=O)C2CN(C(=O)c3cncs3)CC23CN(C(=O)[C@H]2CC2(C)C)C3)[C@@H](C)OCC2CCCCC2)C1 (stereo partly shown) [I-196 mixture] | ≤ 0.5 µM | 0.5 to 5 µM
18 | COC[C@H]1CCCN(C(=O)[C@@H](NC(=O)[C@@H]2CN(C(=O)c3cncs3)CC23CN(C(=O)[C@H]2CC2(C)C)C3)[C@@H](C)OCC2CCCCC2)C1 [I-196A, (S)—N-((2S,3R)-3-(cyclohexylmethoxy)-1-((S)-3-(methoxymethyl)piperidin-1-yl)-1-oxobutan-2-yl)-2-((S)-2,2-dimethylcyclopropanecarbonyl)-6-(thiazole-5-carbonyl)-2,6-diazaspiro[3.4]octane-8-carboxamide] | ≤ 0.5 µM | ≤ 0.5 µM
19 | COC[C@H]1CCCN(C(=O)[C@@H](NC(=O)[C@H]2CN(C(=O)c3cncs3)CC23CN(C(=O)[C@H]2CC2(C)C)C3)[C@@H](C)OCC2CCCCC2)C1 [I-196B] | ≤ 0.5 µM | 0.5 to 5 µM
20 | C[C@@H](OCC1CCCCC1)[C@H](NC(=O)C1CN(C(=O)c2cncs2)CC12CN(C(=O)[C@H]1CC1(C)C)C2)C(=O)N1CCC[C@@H](CO)C1 (stereo partly shown) [I-197] | 0.5 to 5 µM | ≤ 0.5 µM
21 | C[C@@H](OCC1CCCCC1)[C@H](NC(=O)[C@@H]1CN(C(=O)c2cncs2)CC12CN(C(=O)[C@H]1CC1(C)C)C2)C(=O)N1CCOCC1 [I-198] | ≤ 0.5 µM | ≤ 0.5 µM
22 | C[C@@H](OCC1CCC(F)(F)CC1)[C@H](NC(=O)[C@@H]1CN(C(=O)c2cnn(Cc3ccc(F)cc3)c2)CC12CN(C(=O)[C@H]1CC1(C)C)C2)C(N)=O [I-203] | 0.5 to 5 µM | 0.5 to 5 µM

Row | Compound | IC50 (Kuramochi cells) | IC50 [1]
23 | CC1(C)C[C@@H]1C(=O)N1CC2(CN(C(=O)c3cnn(Cc4ccccc4)c3)C[C@H]2C(=O)N[C@@H]2CCN(c3ccccc3)C2)C1 [I-207] | ≤ 0.5 µM | 5 to 20 µM
24 | CNC(=O)[C@@H](NC(=O)[C@@H]1CN(C(=O)c2sc(Cl)nc2C)CC12CN(C(=O)[C@H]1CC1(C)C)C2)[C@@H](C)OCC1CCCCC1 [I-208A] | ≤ 0.5 µM | ≤ 0.5 µM
25 | CNC(=O)[C@@H](NC(=O)[C@@H]1CN(C(=O)c2sc(C)nc2C)CC12CN(C(=O)[C@H]1CC1(C)C)C2)[C@@H](C)OCC1CCCCC1 [I-213A] | 0.5 to 5 µM | 0.5 to 5 µM
26 | CNC(=O)[C@@H](NC(=O)[C@H]1CN(C(=O)c2sc(C)nc2C)CC12CN(C(=O)[C@H]1CC1(C)C)C2)[C@@H](C)OCC1CCCCC1 [I-213B] | > 10 µM | > 20 µM
27 | CNC(=O)[C@@H](NC(=O)[C@H]1CN(C(=O)c2scnc2C2CCCC2)CC12CN(C(=O)[C@H]1CC1(C)C)C2)[C@@H](C)OCC1CCCCC1 [I-224A] | > 10 µM | > 20 µM
28 | CNC(=O)[C@@H](NC(=O)[C@@H]1CN(C(=O)c2sc(C(C)C)nc2C)CC12CN(C(=O)[C@H]1CC1(C)C)C2)[C@@H](C)OCC1CCCCC1 [I-227A] | > 10 µM | > 20 µM
29 | C[C@@H](OCC1CCC(F)(F)CC1)[C@H](NC(=O)[C@@H]1CN(C(=O)c2cn[nH]c2)CC12CN(C(=O)[C@H]1CC1(C)C)C2)C(=O)N1CCC(F)(F)CC1 [I-228A] | > 10 µM | > 20 µM
30 | CNC(=O)[C@@H](NC(=O)[C@@H]1CN(C(=O)c2cnc(C(C)(C)C)s2)CC12CN(C(=O)[C@H]1CC1(C)C)C2)[C@@H](C)OCC1CCCCC1 [I-229A] | 0.5 to 5 µM | 0.5 to 5 µM
31 | CNC(=O)[C@@H](NC(=O)[C@@H]1CN(C(=O)c2scnc2C(C)(C)C)CC12CN(C(=O)[C@H]1CC1(C)C)C2)[C@@H](C)OCC1CCCCC1 [I-231A] | > 10 µM | > 20 µM
32 | CNC(=O)[C@@H](NC(=O)[C@@H]1CN(C(=O)c2sc(Cl)nc2Cl)CC12CN(C(=O)[C@H]1CC1(C)C)C2)[C@@H](C)OCC1CCCCC1 [I-232A] | 0.5 to 5 µM | 0.5 to 5 µM
33 | CNC(=O)[C@@H](NC(=O)[C@@H]1CN(C(=O)c2nncs2)CC12CN(C(=O)[C@H]1CC1(C)C)C2)[C@@H](C)OCC1CCCCC1 [I-246] | 0.5 to 5 µM | 5 to 20 µM
34 | CNC(=O)[C@@H](NC(=O)[C@@H]1CN(C(=O)c2cnn(Cc3ccccc3)c2)CC12CN(C(=O)[C@H]1CC1(C)C)C2)[C@@H](C)OCC1C[C@@H](C)C[C@@H](C)C1 (stereo partly shown) [I-249] | 0.5 to 5 µM | 0.5 to 5 µM
35 | Cc1ccc(CNC(=O)[C@@H]2CN(C(=O)c3cnn(Cc4ccccc4)c3)CC23CN(C(=O)[C@H]2CC2(C)C)C3)nn1 [I-252] | 5 to 10 µM | 5 to 20 µM
36 | CC1(C)C[C@@H]1C(=O)N1CC2(CN(C(=O)c3cnn(Cc4ccccc4)c3)C[C@H]2C(=O)N2CCN(CC3CCCCC3)C(=O)C2)C1 [I-253] | 5 to 10 µM | 5 to 20 µM
37 | CNC(=O)[C@@H](NC(=O)C1CN(C(=O)c2cnn(Cc3ccccc3)c2)CC12CN(C(=O)[C@H]1CC1(C)C)C2)[C@@H](C)OCc1ccccn1 (stereo partly shown) [I-257] | > 10 µM | > 20 µM
38 | CN1CC[C@@H](NC(=O)[C@@H]2CN(C(=O)c3cnn(Cc4ccccc4)c3)CC23CN(C(=O)[C@H]2CC2(C)C)C3)C1=O [I-258] | > 10 µM | > 20 µM
39 | CC1(C)C[C@@H]1C(=O)N1CC2(CN(C(=O)c3cnn(Cc4ccccc4)c3)C[C@H]2C(=O)N[C@@H]2CCN(C3CC3)C2=O)C1 [I-259] | > 10 µM | > 20 µM
40 | CNC(=O)[C@H](CO)NC(=O)C1CN(C(=O)c2cnn(Cc3ccccc3)c2)CC12CN(C(=O)[C@H]1CC1(C)C)C2 (stereo partly shown) [I-260] | > 10 µM | > 20 µM
41 | CNC(=O)[C@@H](CO)NC(=O)C1CN(C(=O)c2cnn(Cc3ccccc3)c2)CC12CN(C(=O)[C@H]1CC1(C)C)C2 (stereo partly shown) [I-261] | > 10 µM | > 20 µM
42 | CNC(=O)[C@@H](NC(=O)[C@@H]1CN(C(=O)c2cnn(Cc3ccccc3)c2)CC12CN(C(=O)[C@H]1CC1(C)C)C2)[C@@H](C)OCc1cccc(O)c1 [I-262] | > 10 µM | > 20 µM
43 | CNC(=O)[C@@H](NC(=O)[C@@H]1CN(C(=O)c2cnn(Cc3ccccc3)c2)CC12CN(C(=O)[C@H]1CC1(C)C)C2)[C@@H](C)OCc1ccc(Br)cc1 [I-263] | 0.5 to 5 µM | 0.5 to 5 µM
44 | Cc1cc(C(=O)N2CC(C(=O)N[C@H](C(=O)N3CCCCC3)[C@@H](C)OCC3CCCCC3)C3(C2)CN(C(=O)[C@H]2CC2(C)C)C3)[nH]n1 (stereo partly shown) [I-264] | > 10 µM | > 20 µM
